Each structure is given as a SMILES string. pIC50: −log10 of the molar value.

The experiment deals with Acetylcholinesterase (Torpedo marmorata, UniProt P07692). As to the kind of experiment: Enzyme Assay. Particulars: pH 4; 25 °C. Here is the method: The inhibitory activity of the equilibrated mixtures was determined. The activity of AChE was monitored by following the linear change in absorbance at 412 nm over 30s at 25C.
Acetylcholinesterase, sequence (P07692 whole entry): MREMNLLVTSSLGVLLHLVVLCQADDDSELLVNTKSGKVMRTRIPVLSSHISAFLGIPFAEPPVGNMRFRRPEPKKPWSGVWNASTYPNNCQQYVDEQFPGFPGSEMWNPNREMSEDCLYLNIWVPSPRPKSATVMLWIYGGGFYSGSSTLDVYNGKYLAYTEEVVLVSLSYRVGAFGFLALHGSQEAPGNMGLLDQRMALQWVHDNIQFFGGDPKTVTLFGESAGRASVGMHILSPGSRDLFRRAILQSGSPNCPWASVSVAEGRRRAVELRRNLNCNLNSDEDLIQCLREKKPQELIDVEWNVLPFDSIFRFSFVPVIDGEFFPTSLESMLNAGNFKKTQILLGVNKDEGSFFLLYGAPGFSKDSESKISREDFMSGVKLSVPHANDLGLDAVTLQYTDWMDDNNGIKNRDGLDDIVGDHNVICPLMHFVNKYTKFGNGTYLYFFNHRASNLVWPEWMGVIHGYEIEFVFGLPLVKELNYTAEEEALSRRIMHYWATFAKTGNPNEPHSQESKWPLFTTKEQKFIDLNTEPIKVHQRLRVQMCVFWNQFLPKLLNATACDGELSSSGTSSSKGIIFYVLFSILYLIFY
As for `c1cc[n+](CCCCCCCCCC[n+]2ccccc2)cc1` [1,10-di(1-pyridiniumyl)decane; diiodide], the pIC50 was 7.59.

Consider `c1cc[n+](CCCCCCCCCCCC[n+]2ccccc2)cc1` [1,12-Bis(pyridinium)dodecane], for which the pIC50 was 7.80.

For the compound `C[N+](C)(C)CCCCCCCCCCCC[N+](C)(C)C` [N1,N1,N1,N12,N12,N12-hexamethyldodecane-1,12-diaminium bromide], the pIC50 is 7.03.

In the case of `O=C(C[n+]1ccccc1)N/N=C/c1ccc(/C=N/NC(=O)C[n+]2ccccc2)cc1` [Terephthalaldehyde, 4-I-4], the pIC50 is 8.64.

What is called pIC50 is the negative decadic logarithm of the IC50, by convention in mol/L. Higher therefore signals a low IC50.
